Data from paper PMC2639596, “Antimicrobial peptides effectively kill a broad spectrum of Listeria monocytogenes and Staphylococcus aureus strains independently of origin, sub-type, or virulence factor expression” (BMC Microbiology, 2008).
Read-outs that look alike come from different tables or passages of the source. Bridge positions count the residues as written; N and C are the ends. Ends that are not written are not given here.

Legend:
[1] = test system: L. monocytogenes and S. aureus; assay: Minimum bactericidal concentration (MBC), plating from MIC wells; format: cell-based, Listeria monocytogenes, Staphylococcus aureus; conditions: 99.9% reduction of initial inoculum; 10 μl from wells with no visible growth plated on BHI agar
Procedure: The strain collection was tested for sensitivity to protamine, plectasin, novicidin, and novispirin G10 by determining their minimal inhibitory concentration (MIC) using a microbroth dilution method. Colonies from a BHI agar plate incubated overnight were suspended in MHB pH 7.4 to a turbidity of 0.11–0.12 at 546 nm (approx. 1.0 × 10^8 CFU/ml) and diluted in MHB to a concentration of 5.0 × 10^5 CFU/ml. 90 μl of bacterial suspension was incubated with 10 μl of peptide solution in polypropylene 96-well plates (Nunc, 442587) for 18–24 h at 37°C. The peptide solutions were made fresh on the day of assay and diluted two-fold. The range of concentrations assayed were 0.031–32 μg/ml for novicidin, 0.125–128 μg/ml for protamine and novispirin G10, and 0.25–256 μg/ml for plectasin. MIC was the lowest peptide concentration at which visual growth was inhibited. The minimum bactericidal concentration (MBC) values were determined by plating l0 μl samples from wells with no visible growth onto BHI agar plates. MBC was the lowest concentration of each peptide of which 99.9% reduction of the initial inoculum was observed.

Listeria monocytogenes = format: cell-based; conditions: radial diffusion, MHB pH 7.4/1% agarose/0.1% glucose, overnight, 37°C
Procedure: (§1) Experiments were carried out with a collection of 25 Listeria monocytogenes strains (Table 1) and 16 Staphylococcus aureus strains (Table 2) representing different lineages and serotypes (L. monocytogenes), spa types (S. aureus), and origins (food processing environment, food products, and human clinical isolates). Six L. monocytogenes strains were mutants of the EGD strain and were mutated in genes known to be involved in stress tolerance. The S. aureus collection comprised two deletion mutants, strains Sa113/ΔmprF [8] and Sa113/ΔdltA [7], known to be more sensitive to host defense peptides. Two of the S. aureus strains could not immediately be assigned to an existing spa type and we are in the process of acquiring the additional information that is needed to assign a new spa type to them. The strains were obtained from The National Institute of Aquatic Resources and The National Food Institute, Technical University of Denmark, Faculty of Life Sciences, University of Copenhagen, Denmark, Statens Serum Institut, Denmark, University of Würzburg, Germany and Campden Food and Drink Association, United Kingdom. Stock cultures were stored at -80°C in 4% (w/V) glycerol, 0.5% (w/V) glucose, and 2.0% (w/V) skimmed milk powder. The bacteria were grown in Brain Heart Infusion (BHI) broth (Oxoid, CM0225), Tryptone Soy Broth (TSB) (Oxoid, CM129), and cation-adjusted Mueller-Hinton II Broth (MHB) (Becton Dickinson, 212322) adjusted to pH 7.4. To avoid unspecific binding of host defense peptides to plastic ware and agar, all MIC determinations were carried out using polypropylene plastic ware and radial diffusion assays were carried out in MHB supplemented with 1% agarose (Invitrogen, 15510-027) as gelling agent.
(§2) Protamine was purchased from Sigma (P4020-5G). Plectasin, novicidin, and novispirin G10 were supplied by Novozymes A/S. Recombinant HBD-3 was purchased from PeproTech (300-52).
(§3) Each strain was tested in two independent trials.

Staphylococcus aureus = format: cell-based; conditions: radial diffusion, MHB pH 7.4/1% agarose/0.1% glucose, overnight, 37°C
Procedure: as §1, §2, §3

## CC[C@H](C)[C@@H]1NC(=O)[C@H](CO)NC(=O)[C@H](CCCCN)NC(=O)[C@@H]2CSSC[C@@H](C(=O)N[C@@H](Cc3ccc(O)cc3)C(=O)O)NC(=O)[C@H](CCCCN)NC(=O)[C@@H]3CSSC[C@H](NC(=O)[C@H](CCC(N)=O)NC(=O)[C@H](CCSC)NC(=O)[C@H](CC(=O)O)NC(=O)[C@H](CC(=O)O)NC(=O)[C@H](CCC(=O)O)NC(=O)[C@H](CC(=O)O)NC(=O)[C@H](Cc4c[nH]c5ccccc45)NC(=O)[C@@H]4CCCN4C(=O)CNC(=O)[C@H](CC(N)=O)NC(=O)[C@@H](NC(=O)CNC(=O)[C@H](Cc4ccccc4)NC(=O)CN)CSSC[C@H](NC(=O)[C@H](Cc4ccc(O)cc4)NC(=O)CNC(=O)CNC(=O)[C@H](CCCCN)NC(=O)[C@H](Cc4ccc(O)cc4)NC(=O)CNC(=O)[C@H](CCCCN)NC1=O)C(=O)N[C@@H](C)C(=O)N[C@@H](CCCCN)C(=O)NCC(=O)NCC(=O)N[C@@H](Cc1ccccc1)C(=O)N[C@@H](C(C)C)C(=O)N3)C(=O)N[C@@H](Cc1c[nH]cn1)C(=O)N[C@@H](CC(N)=O)C(=O)N[C@@H](Cc1c[nH]cn1)C(=O)N2 [plectasin]
[1]
  minimum bactericidal concentrations (MBC): identical to the MICs

## GIINTLQKYYCRVRGGRCAVLSCLPKEEQIGKCSTRGRKCCRRKK (disulfide 11-40, 18-33, 23-41 (inferred)) [HBD-3, human β-defensin 3]
Listeria monocytogenes; strain 4446, first of two values (two independent trials)
  MIC (MEC): 16/16 μg/ml
Listeria monocytogenes; strain 4446, second of two values (two independent trials)
  MIC (MEC): 16/16 μg/ml
Listeria monocytogenes; strain 7418, first of two values (two independent trials)
  MIC (MEC): 4 µg/mL
Listeria monocytogenes; strain 7418, second of two values (two independent trials)
  MIC (MEC): 8 µg/mL
Listeria monocytogenes; strain EGD, first of two values (two independent trials)
  MIC (MEC): 16/16 μg/ml
Listeria monocytogenes; strain EGD, second of two values (two independent trials)
  MIC (MEC): 16/16 μg/ml
Listeria monocytogenes; strain La22, first of two values (two independent trials)
  MIC (MEC): 16/16 μg/ml
Listeria monocytogenes; strain La22, second of two values (two independent trials)
  MIC (MEC): 16/16 μg/ml
Listeria monocytogenes; strain La111, first of two values (two independent trials)
  MIC (MEC): 8 µg/mL
Listeria monocytogenes; strain La111, second of two values (two independent trials)
  MIC (MEC): 16 µg/mL
Listeria monocytogenes; strain N53-1, first of two values (two independent trials)
  MIC (MEC): 16 µg/mL
Listeria monocytogenes; strain N53-1, second of two values (two independent trials)
  MIC (MEC): 32 µg/mL
Listeria monocytogenes; strain Scott A, first of two values (two independent trials)
  MIC (MEC): 8/8 μg/ml
Listeria monocytogenes; strain Scott A, second of two values (two independent trials)
  MIC (MEC): 8/8 μg/ml
Staphylococcus aureus; strain 796, first of two values (two independent trials)
  MIC (MEC): 64/64 μg/ml
Staphylococcus aureus; strain 796, second of two values (two independent trials)
  MIC (MEC): 64/64 μg/ml
Staphylococcus aureus; strain 2148-jvi, first of two values (two independent trials)
  MIC (MEC): 32/32 μg/ml
Staphylococcus aureus; strain 2148-jvi, second of two values (two independent trials)
  MIC (MEC): 32/32 μg/ml
Staphylococcus aureus; strain 8325-4, first of two values (two independent trials)
  MIC (MEC): 32/32 μg/ml
Staphylococcus aureus; strain 8325-4, second of two values (two independent trials)
  MIC (MEC): 32/32 μg/ml
Staphylococcus aureus; strain 14943, first of two values (two independent trials)
  MIC (MEC): 32 µg/mL
Staphylococcus aureus; strain 14943, second of two values (two independent trials)
  MIC (MEC): 64 µg/mL
Staphylococcus aureus; strain B31369, first of two values (two independent trials)
  MIC (MEC): 64/64 μg/ml
Staphylococcus aureus; strain B31369, second of two values (two independent trials)
  MIC (MEC): 64/64 μg/ml
Staphylococcus aureus; strain K3-B2, first of two values (two independent trials)
  MIC (MEC): 32 µg/mL
Staphylococcus aureus; strain K3-B2, second of two values (two independent trials)
  MIC (MEC): 64 µg/mL
Staphylococcus aureus; strain KES 626, first of two values (two independent trials)
  MIC (MEC): 32 µg/mL
Staphylococcus aureus; strain KES 626, second of two values (two independent trials)
  MIC (MEC): 64 µg/mL
